Structure (SMILES) | logP
Cn1cnc([N+](=O)[O-])c1Br | 0.36
Cn1cnc(Cl)c1[N+](=O)[O-] | 0.69
Cc1nc(Br)n(C)c1[N+](=O)[O-] | 0.82
Cn1cncc1[N+](=O)[O-] | 0.13
Cn1cnc([N+](=O)[O-])c1N | -1
O=[N+]([O-])c1nc[nH]c1Cl | 0.78
Cn1c([N+](=O)[O-])cnc1Cl | 0.62
Cn1ccnc1[N+](=O)[O-] | -0.17
COc1c([N+](=O)[O-])ncn1C | 0.19
Cc1[nH]cnc1[N+](=O)[O-] | 0.23
Cc1nc([N+](=O)[O-])c(Br)[nH]1 | 1.14
Cn1cnc(Br)c1[N+](=O)[O-] | 0.77
COc1nc(C)[nH]c1[N+](=O)[O-] | 0.21
Cn1cc([N+](=O)[O-])nc1Cl | 0.19
O=[N+]([O-])c1nc[nH]c1Br | 0.85
Cn1cnc([N+](=O)[O-])c1 | -0.44
Cn1cc([N+](=O)[O-])nc1Br | 0.33
Cc1[nH]c(Br)nc1[N+](=O)[O-] | 0.86
COc1nc[nH]c1[N+](=O)[O-] | 0.13

From the OPERA property sets (Mansouri et al. 2018)
